{"source": "patent US20210395247A1", "about": "“BTK INHIBITORS, PHARMACEUTICALLY ACCEPTABLE SALTS, POLYMORPHS AND APPLICATION THEREOF” (SHANGHAI HAIYAN PHARMACEUTICAL TECHNOLOGY CO., LTD., priority 2019, published 2021)", "key": {"[1]": {"test": "Stability experiment of the crystal forms of the free base (mixed forms shaken under suspension in solvents, XRD)", "format": "physicochemical", "conditions": "50° C. 1 day, room temperature 1 day and 7 days", "procedure": "80 mg of the compound of formula X in amorphous form, crystal form I, crystal form II and crystal form III were weighed respectively, and mixed them in a sample bottle; 20 mg of the mixture was weighed into each centrifuge tube, a total of 15 samples (5 experimental solvents, 3 experimental conditions); Experimental solvents: acetone, acetonitrile, ethyl acetate, isopropanol and ethanol; Experimental conditions: 1 day and 7 days at room temperature, 1 day at 50° C. The experimental conditions and results are as follows: […]"}, "[2]": {"biological_target": "T1, BTK WT (Homo sapiens, UniProt Q06187)", "T1 construct": "purchased Invitrogen PV3363", "T1 sequence (Q06187 whole entry)": "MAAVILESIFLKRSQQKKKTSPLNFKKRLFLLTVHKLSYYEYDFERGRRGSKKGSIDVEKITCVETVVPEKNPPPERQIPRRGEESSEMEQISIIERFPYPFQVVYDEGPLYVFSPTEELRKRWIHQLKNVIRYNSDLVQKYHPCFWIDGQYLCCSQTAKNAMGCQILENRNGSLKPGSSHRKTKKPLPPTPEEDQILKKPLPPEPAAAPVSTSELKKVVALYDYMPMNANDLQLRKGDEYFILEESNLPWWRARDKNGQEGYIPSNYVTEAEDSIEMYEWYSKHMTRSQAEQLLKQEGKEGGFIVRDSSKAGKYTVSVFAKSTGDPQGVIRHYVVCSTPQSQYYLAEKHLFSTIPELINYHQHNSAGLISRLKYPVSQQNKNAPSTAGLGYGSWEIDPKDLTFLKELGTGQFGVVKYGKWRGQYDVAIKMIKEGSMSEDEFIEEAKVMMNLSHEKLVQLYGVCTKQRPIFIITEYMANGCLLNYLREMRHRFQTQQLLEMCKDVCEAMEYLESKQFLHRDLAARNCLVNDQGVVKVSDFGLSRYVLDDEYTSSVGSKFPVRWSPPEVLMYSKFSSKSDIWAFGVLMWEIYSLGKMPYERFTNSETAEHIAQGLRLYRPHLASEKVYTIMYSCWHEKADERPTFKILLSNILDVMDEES", "test": "Lantha screening kinase reaction experiment (BTK WT inhibition)", "format": "biochemical", "procedure": "The compound was predissolved in 100% DMSO. 10 mM drug stock solution was obtained by dissolution at room temperature and then serially diluted with 8 vol % DMSO solution to a final concentration of 10-0.005 μM. 2.5 μl of a solution of substance to be tested and 2.5 μl of kinase (Invitrogen PV3363) diluted with the reaction buffer were added into each well of 384-well plate (Corning 3676), and then the mixture of Fluososcei-PolyGT (Invitrogen PV3610) substrate and ATP (Invitrogen PV3227) diluted with 5 μl of the reaction buffer were added to initiate the reaction. Among the wells, the kinase in the blank well was replaced with a reaction buffer and the kinase well (Enzyme) was not added with any drug. After shaking at 25° C. for 60 minutes in the dark, 10 μl of Detection Solution (mixture of Invitrogen PV3528 and EDTA, which was diluted with TR-FRET dilution buffer, the working concentration of EDTA was 5 mM, the working concentration of Lanthascreening Tb PY20 antibody was 0.2 nM) was added and shaken at room temperature for 30 minutes. The plates were read on a VictorX5 fluorescent plate reader (PerkinElmer) and the light absorption at an excitation wavelength of 340 nm and emission wavelengths of 500 nm and 520 nm was measured. […]\n2. […] The half-inhibitory concentration IC50 was calculated by fitting with XLFIT 5.0 software (IDBS, UK)."}, "[3]": {"biological_target": "T2, βBTK Y223 (Homo sapiens, UniProt Q06187)", "T2 construct": "endogenous in cells; host or cells: Ramos cells", "T2 sequence (Q06187 whole entry)": "as above", "test": "Intracellular βBTK Y223 phosphorylation HTRF detection in Ramos cells", "format": "cell-based", "conditions": "sodium pervanadate", "procedure": "The compound was predissolved in 100% DMSO. 10 mM drug stock solution was obtained by dissolution at room temperature and then serially diluted with 5 vol % DMSO solution to a final concentration of 3-0.0014 μM. Ramos cells were seeded into 96-well plates at a density of 4×10^5/well with 45 μl of 1640 medium containing 10% (V/V) FBS per well, and 5 μl of diluted solution of substance to be tested was added to each well, which was incubated for 1 hour at 37° C., 5% (V/V) CO2. 10 μl of sodium pervanadate dilution (diluted with 1640 without serum) was added, and to the negative control wells was added 10 μl of serum-free medium, which was incubated at 25° C. for 30 minutes on a shaker. 20 μl of lysate (4× lysate: blocked mother liquor is 25:1) was added to each well and incubated for 30 minutes at 25° C. on a shaker. It was shaken on an oscillator at 800 rpm for 1 minute. […] The plates were read on a VictorX5 fluorescent plate reader (PerkinElmer) and the light absorption at an excitation wavelength of 317 nm and emission wavelengths of 500 nm and 520 nm was measured (referring to the specification of 63ADK017PEH, Cisbio). The half-inhibitory concentration IC50 was calculated by fitting with XLFIT 5.0 software (IDBS, UK)."}, "[4]": {"biological_target": "T3, wild-type EGFR kinase (Homo sapiens, UniProt P00533)", "T3 construct": "purchased Invitrogen PV3872", "T3 sequence (P00533 668-1210 limits assumed)": "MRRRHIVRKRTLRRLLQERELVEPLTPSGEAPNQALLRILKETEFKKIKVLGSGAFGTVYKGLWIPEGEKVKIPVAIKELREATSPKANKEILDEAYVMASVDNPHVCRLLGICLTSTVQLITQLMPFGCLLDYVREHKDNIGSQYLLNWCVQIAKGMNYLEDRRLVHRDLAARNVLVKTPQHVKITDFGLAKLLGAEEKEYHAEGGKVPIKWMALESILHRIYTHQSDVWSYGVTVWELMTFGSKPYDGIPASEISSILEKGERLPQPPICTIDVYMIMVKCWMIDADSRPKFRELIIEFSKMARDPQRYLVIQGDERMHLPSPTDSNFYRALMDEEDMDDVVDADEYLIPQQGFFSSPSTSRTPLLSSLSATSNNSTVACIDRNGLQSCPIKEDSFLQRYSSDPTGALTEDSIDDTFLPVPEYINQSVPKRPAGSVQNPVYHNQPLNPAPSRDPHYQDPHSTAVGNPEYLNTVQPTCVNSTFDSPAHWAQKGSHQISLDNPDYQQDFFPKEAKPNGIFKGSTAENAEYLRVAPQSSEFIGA", "test": "Wild type EGFR kinase inhibition test (z-lyte)", "format": "biochemical", "procedure": "All the following reagents used in z-lyte test are commercially available from Invitrogen.\nThe inhibitory effects of compounds to be tested on wild-type EGFR kinase (Invitrogen, PV3872) were measured by z-lyte methods.\nThe working concentration of each component in 10 μl wild-type EGFR kinase reaction system was: 10 μM ATP, 0.8 ng/μl wild-type EGFR kinase (Invitrogen, PV3872), 2 μM Tyr04 substrate (Invitrogen, PV3193). After the compounds to be tested were added, the final concentration of DMSO was 2%.\n10 mM drug stock solutions dissolved at room temperature were gradiently diluted with 4% DMSO in water to a final concentrations of 10-0.005 μM. To each well were added 2.5 μl of a solution of the compounds to be tested and 5 μl of a mixture of wild-type EGFR kinase and Tyr04 substrate diluted with a reaction buffer, and then 2.5 μl of ATP was added to initiate the reaction. […] The plates were read in a VictorX5 fluorescent microplate reader (PerkinElmer) and the light absorbance at an excitation wavelength of 405 nm and emission wavelengths of 450 nm and 520 nm was measured (For example, C3520 nm represents the reading of C3 well at 520 nm). […]\nThe half-inhibitory concentration IC50 was calculated by fitting with XLFIT 5.0 software (IDBS, UK)."}, "[5]": {"test": "Stability experiment (40° C./75% RH accelerated stability box and 60° C. oven)", "format": "physicochemical", "procedure": "The compound of formula X (amorphous) and crystal form A are placed in a 40° C./75% RH accelerated stability box and a 60° C. oven respectively, and take samples at fixed time points."}, "[6]": {"test": "Solubility experiment", "format": "physicochemical", "procedure": "About 5 mg of the compound of formula X (amorphous), crystal form I and crystal form A were weighed into each centrifuge tube, and 0.5 ml or 1 ml of corresponding medium was added, and ultrasonic vibration is conducted to make it dissolved as much as possible to form a supersaturated solution, centrifuged and the supernatant (if the solubility is high, dilute it) was taken into the liquid chromatography to calculate the solubility, 5.69 mg of the compound of formula X (amorphous) can be completely dissolved in 0.5 ml of 0.1M HCl medium, 4.24 mg of crystal form I can be completely dissolved in 1 ml of 0.1M HCl medium, the experimental results are shown in table 12: […]"}, "[7]": {"test": "Stability experiment of crystal form I (60° C. oven)", "format": "physicochemical", "procedure": "The sample is weighed and placed in an oven at 60° C., and taken for test at a fixed time point."}, "[8]": {"test": "Thermogravimetric analysis (TGA)", "format": "physicochemical", "conditions": "below 250° C.", "source_text": "TGA and DSC pattern: TGA and DSC pattern were collected on TA Q500/5000 thermogravimetric analyzer and TA Q200/2000 differential scanning calorimeter respectively."}, "[9]": {"test": "Dynamic Vapor Sorption (DVS)", "format": "physicochemical", "procedure": "The Dynamic Vapor Sorption (DVS) curve: acquired on the DVS Intrinsic of Surface Measurement Systems. The relative humidity at 25° C. is corrected with the deliquescence points of LiCl, Mg (NO3)2 and KCl."}}, "note": "Where two headings read alike, the source gives them in different places.", "data": [{"smiles": "C=CC(=O)N1CCC[C@@H](Nc2nc(Nc3ccc(N4CCOCC4)cc3F)c3c(c2F)CNC3=O)C1", "note": "[crystal form III, (R)-6-((1-acryloylpiperidin-3-yl)amino)-7-fluoro-4-((2-fluoro-4-morpholinophenyl)amino)-1,2-dihydrogen-3H-pyrrolo[3,4-c]pyridin-3-one]", "values": [{"measurement": "form obtained from the mixture of amorphous and crystal forms I, II, III (XRD)", "setting": "[1]; ethanol", "result": "stable crystal form"}]}, {"smiles": "C=CC(=O)N1CCC[C@H](Nc2nc(Nc3ccc(N4CCOCC4)cc3F)c3c(c2F)CNC3=O)C1", "note": "[(S)-6-((1-acryloylpiperidin-3-yl)amino)-7-fluoro-4-((2-fluoro-4-morpholinophenyl)amino)-1,2-dihydrogen-3H-pyrrolo[3,4-c]pyridin-3-one, reference compound]", "values": [{"measurement": "IC50", "setting": "[2]", "result": 0.048, "unit": "µM"}]}, {"smiles": "C=CC(=O)N1CCC[C@@H](Nc2nc(Nc3ccc(N4CCOCC4)cc3F)c3c(c2F)CNC3=O)C1", "note": "[Compound of formula X, (R)-6-((1-acryloylpiperidin-3-yl)amino)-7-fluoro-4-((2-fluoro-4-morpholinophenyl)amino)-1,2-dihydrogen-3H-pyrrolo[3,4-c]pyridin-3-one]", "values": [{"measurement": "IC50", "setting": "[2]", "result": 0.0024, "unit": "µM"}, {"measurement": "IC50", "setting": "[3]", "result": 0.003, "unit": "µM"}, {"measurement": "IC50", "setting": "[4]; 10 μM ATP, read-out: EGFR WT IC50", "result": 0.932, "unit": "µM"}, {"measurement": "selectivity BTK WT kinase over wild-type EGFR kinase (in words)", "setting": "[4]; comparison of tables 14 and 16", "result": "selective inhibitory activities against BTK WT kinase"}, {"measurement": "Content %", "setting": "[5]; 0 day", "result": 100.00, "unit": "%"}, {"measurement": "Total Impurity %", "setting": "[5]; 0 day", "result": 0, "unit": "%"}, {"measurement": "chemical stability (conclusion in words)", "setting": "[5]; 40° C./75% RH and 60° C., 8 days and 14 days", "result": "stable"}, {"measurement": "Content %", "setting": "[5]; 40° C./75% RH, 8 days", "result": 100.62, "unit": "%"}, {"measurement": "Total Impurity %", "setting": "[5]; 40° C./75% RH, 8 days", "result": 0, "unit": "%"}, {"measurement": "Content %", "setting": "[5]; 40° C./75% RH, 14 days", "result": 100.70, "unit": "%"}, {"measurement": "Total Impurity %", "setting": "[5]; 40° C./75% RH, 14 days", "result": 0, "unit": "%"}, {"measurement": "Content %", "setting": "[5]; 60° C., 8 days", "result": 100.82, "unit": "%"}, {"measurement": "Total Impurity %", "setting": "[5]; 60° C., 8 days", "result": 0, "unit": "%"}, {"measurement": "Content %", "setting": "[5]; 60° C., 14 days", "result": 100.81, "unit": "%"}, {"measurement": "Total Impurity %", "setting": "[5]; 60° C., 14 days", "result": 0, "unit": "%"}, {"measurement": "Solubility", "setting": "[6]; 0.1M HCl medium, listed as Amorphous", "result": "≥11380", "unit": "µg/mL"}, {"measurement": "Solubility", "setting": "[6]; H2O, listed as Amorphous", "result": 11, "unit": "µg/mL"}, {"measurement": "Solubility", "setting": "[6]; pH 4.5 medium, listed as Amorphous", "result": 9, "unit": "µg/mL"}, {"measurement": "Solubility", "setting": "[6]; pH 6.8 medium, listed as Amorphous", "result": 7, "unit": "µg/mL"}]}, {"smiles": "C=CC(=O)N1CCC[C@@H](Nc2nc(Nc3ccc(N4CCOCC4)cc3F)c3c(c2F)CNC3=O)C1", "note": "[crystal form I, (R)-6-((1-acryloylpiperidin-3-yl)amino)-7-fluoro-4-((2-fluoro-4-morpholinophenyl)amino)-1,2-dihydrogen-3H-pyrrolo[3,4-c]pyridin-3-one]", "values": [{"measurement": "Solubility", "setting": "[6]; 0.1M HCl medium", "result": "≥4240", "unit": "µg/mL"}, {"measurement": "Solubility", "setting": "[6]; pH 4.5 medium, pH 4.5, aqueous buffer, thermodynamic from solid, pH 4.5 medium, read-out: Solubility", "result": 8, "unit": "µg/mL"}, {"measurement": "Solubility", "setting": "[6]; pH 6.8 medium, pH 6.8, aqueous buffer, thermodynamic from solid, pH 6.8 medium, read-out: Solubility", "result": 6, "unit": "µg/mL"}, {"measurement": "Solubility", "setting": "[6]; water, thermodynamic from solid, H2O, read-out: Solubility", "result": 7, "unit": "µg/mL"}, {"measurement": "form obtained from the mixture of amorphous and crystal forms I, II, III (XRD)", "setting": "[1]; acetone", "result": "stable crystal form"}, {"measurement": "form obtained from the mixture of amorphous and crystal forms I, II, III (XRD)", "setting": "[1]; acetonitrile", "result": "stable crystal form"}, {"measurement": "form obtained from the mixture of amorphous and crystal forms I, II, III (XRD)", "setting": "[1]; ethyl acetate", "result": "stable crystal form"}, {"measurement": "form obtained from the mixture of amorphous and crystal forms I, II, III (XRD)", "setting": "[1]; isopropanol", "result": "stable crystal form"}, {"measurement": "Content %", "setting": "[7]; 0 day", "result": 100.11, "unit": "%"}, {"measurement": "Relative substance %", "setting": "[7]; 0 day", "result": "none"}, {"measurement": "Content %", "setting": "[7]; 60° C., 1 week", "result": 99.91, "unit": "%"}, {"measurement": "Relative substance %", "setting": "[7]; 60° C., 1 week", "result": "none"}, {"measurement": "chemical stability (conclusion in words)", "setting": "[7]; 60° C., 1 week and 2 weeks", "result": "stable"}, {"measurement": "crystal form stability by XRD", "setting": "[7]; 60° C., 1 week and 2 weeks", "result": "has not changed"}, {"measurement": "Content %", "setting": "[7]; 60° C., 2 weeks", "result": 99.76, "unit": "%"}, {"measurement": "Relative substance %", "setting": "[7]; 60° C., 2 weeks", "result": "none"}, {"measurement": "TGA weight loss", "setting": "[8]", "result": "basically no weight loss"}, {"measurement": "weight gain of moisture absorption", "setting": "[9]; 90% RH, 25° C.", "result": 0.22, "unit": "%"}, {"measurement": "hygroscopicity (in words)", "setting": "[9]; from DVS at 90% RH", "result": "slightly hygroscopic"}]}]}
